Test results published in ChEMBL document CHEMBL1201862, “PubChem BioAssay data set” (2004).
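Values below derive from 48-hour exposures of cells grown in 96-well plates, with endpoints linearly interpolated between the two concentrations bracketing the appropriate inhibition level. GI50 marks 50% less growth.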 Calls of active or inactive are those of the source. Rule as the data show it: active = GI50 up to about 1.1 µM and inactive = higher.

Columns and labels:
Assay in all cases: inhibition of tumour cell growth, NCI panel, 48 h
SF-539 = system: SF-539
DU-145 = system: DU-145
A549 = system: A549
HOP-92 = system: HOP-92
U-251 = system: U-251
SW-620 = system: SW-620
KM12 = system: KM12
NCI-H226 = system: NCI-H226
NCI-H522 = system: NCI-H522
CCRF-CEM = system: CCRF-CEM
SNB-75 = system: SNB-75
SK-MEL-28 = system: SK-MEL-28
PC-3 = system: PC-3
SK-OV-3 = system: SK-OV-3
UACC-257 = system: UACC-257
RXF 393 = system: RXF 393
Malme-3M = system: Malme-3M
OVCAR-5 = system: OVCAR-5
M14 = system: M14
MDA-N = system: MDA-N

Row | SMILES | GI50 (SF-539) | GI50 (DU-145) | GI50 (A549) | GI50 (HOP-92) | GI50 (U-251) | GI50 (SW-620) | GI50 (KM12) | GI50 (NCI-H226) | GI50 (NCI-H522) | GI50 (CCRF-CEM) | GI50 (SNB-75) | GI50 (SK-MEL-28) | GI50 (PC-3) | GI50 (SK-OV-3) | GI50 (UACC-257) | GI50 (RXF 393) | GI50 (Malme-3M) | GI50 (OVCAR-5) | GI50 (M14) | GI50 (MDA-N)
1 | N=c1c2c(=S)n(-c3ccccc3)c(=S)n(-c3ccccc3)c2nc(SCCCN2CCCCC2)n1-c1ccccc1 | 2.93 µM (inactive) | 1.66 µM (inactive) | 1.83 µM (inactive) | 1.78 µM (inactive) | 1.74 µM (inactive) | 2.11 µM (inactive) | 1.82 µM (inactive) | 2.35 µM (inactive) | 1.53 µM (inactive) | 0.413 µM (active) | 1.73 µM (inactive) | 2.11 µM (inactive) | 1.66 µM (inactive) | 2.26 µM (inactive) | 1.75 µM (inactive) | 1.64 µM (inactive) | 1.73 µM (inactive) | 11.5 µM (inactive) | 1.69 µM (inactive) | 1.77 µM (inactive)
2 | COc1cc(C(=O)NC2CCc3cc(OC)c(OC)c(OC)c3-c3ccc(OC)c(=O)cc32)cc(OC)c1OC (configuration not stated) | 0.0228 µM (active) | 0.24 µM (active) | 0.431 µM (active) | 0.0592 µM (active) | 0.0555 µM (active) | 0.0521 µM (active) | 0.036 µM (active) | 0.444 µM (active) | 0.0234 µM (active) | 0.0339 µM (active) | 0.13 µM (active) | 0.192 µM (active) | 0.0807 µM (active) | 0.231 µM (active) | 0.0938 µM (active) | 0.466 µM (active) | 0.141 µM (active) | 2.75 µM (inactive) | 0.202 µM (active) | 0.0202 µM (active)
3 | CC(=O)OC1=CC(n2cc(F)c(=O)[nH]c2=O)OC(C)C1=O (configuration not stated) | 3.01 µM (inactive) | 21.6 µM (inactive) | 7.29 µM (inactive) | > 33.2 µM (inactive) | > 85.7 µM (inactive) | 59 µM (inactive) | 22.8 µM (inactive) | > 97.3 µM (inactive) | > 95.5 µM (inactive) | 75 µM (inactive) | 51.1 µM (inactive) | 17.7 µM (inactive) | 53 µM (inactive) | 99.1 µM (inactive) | 57.1 µM (inactive) | 55.3 µM (inactive) | 19.6 µM (inactive) | 49.8 µM (inactive) | 61.2 µM (inactive) | 15.2 µM (inactive)
4 | ClCCCSSCCCCl | 20.7 µM (inactive) | 43.1 µM (inactive) | 38.6 µM (inactive) | 16.2 µM (inactive) | 42 µM (inactive) | 27.7 µM (inactive) | 32.3 µM (inactive) | > 79.4 µM (inactive) | 25.9 µM (inactive) | 5.08 µM (inactive) | 37.8 µM (inactive) | 45 µM (inactive) | 24.3 µM (inactive) | 44 µM (inactive) | 36.8 µM (inactive) | 48.9 µM (inactive) | 32.3 µM (inactive) | > 91.6 µM (inactive) | 38.4 µM (inactive) | 19.9 µM (inactive)
5 | O=C1CSC(c2cccc(Oc3ccccc3)c2)N1c1cc(Cl)ccc1Cl (configuration not stated) | 19.1 µM (inactive) | 35.2 µM (inactive) | 48 µM (inactive) | 16.4 µM (inactive) | 18.4 µM (inactive) | 22.3 µM (inactive) | 26.4 µM (inactive) | 23.4 µM (inactive) | 20.9 µM (inactive) | 17.2 µM (inactive) | 26.4 µM (inactive) | 29.5 µM (inactive) | 22.6 µM (inactive) | 39.8 µM (inactive) | 22.7 µM (inactive) | 18.5 µM (inactive) | 27.5 µM (inactive) | 27.7 µM (inactive) | 22.2 µM (inactive) | 17.6 µM (inactive)
6 | Cc1ccc2c(c1)Sc1ccc(/N=N/N(C)C)cc1N2C | – | > 100 µM (inactive) | > 100 µM (inactive) | 48.5 µM (inactive) | > 100 µM (inactive) | > 100 µM (inactive) | 48.8 µM (inactive) | > 100 µM (inactive) | > 100 µM (inactive) | 46 µM (inactive) | > 100 µM (inactive) | > 100 µM (inactive) | 71.1 µM (inactive) | > 100 µM (inactive) | – | > 100 µM (inactive) | > 100 µM (inactive) | > 100 µM (inactive) | > 100 µM (inactive) | > 100 µM (inactive)
7 | O=C1OCC2=C1C(c1ccc3c(c1)OCO3)c1cc3c(cc1O2)OCO3 (configuration not stated) | 0.522 µM (active) | 1.64 µM (inactive) | 0.897 µM (active) | 14.4 µM (inactive) | 0.583 µM (active) | 0.406 µM (active) | – | 5.14 µM (inactive) | 0.262 µM (active) | 0.667 µM (active) | 0.5 µM (active) | 1.72 µM (inactive) | 0.59 µM (active) | 0.776 µM (active) | 5.13 µM (inactive) | 0.828 µM (active) | 3.1 µM (inactive) | 7.48 µM (inactive) | 0.369 µM (active) | 0.0782 µM (active)
